Results: article PMC3622673, “Screening Compounds with a Novel High-Throughput ABCB1-Mediated Efflux Assay Identifies Drugs with Known Therapeutic Targets at Risk for Multidrug Resistance Interference” (PLoS ONE, 2013)
Where a name gives a salt, the structure may show the parent alone. Read-outs that look alike come from different tables or passages of the source.

Key:
ABCB1 [1] = target: T1, ABCB1 (Homo sapiens, UniProt P08183); test: Cell and fluorescent imaging-based ABCB1-mediated efflux assay (IncuCyte FLR) in KB-V1 cells; conditions: for inhibition at 10 µM: human;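 for all read-outs here: ABCB1-overexpressing KB-V1 cells, live-cell fluorescence imaging of retained calcein (from calcein AM) or MitoTracker Green FM, no preincubation with inhibitor, XR9576 as positive control, calcein AM alone as background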
T1 sequence (P08183 whole entry): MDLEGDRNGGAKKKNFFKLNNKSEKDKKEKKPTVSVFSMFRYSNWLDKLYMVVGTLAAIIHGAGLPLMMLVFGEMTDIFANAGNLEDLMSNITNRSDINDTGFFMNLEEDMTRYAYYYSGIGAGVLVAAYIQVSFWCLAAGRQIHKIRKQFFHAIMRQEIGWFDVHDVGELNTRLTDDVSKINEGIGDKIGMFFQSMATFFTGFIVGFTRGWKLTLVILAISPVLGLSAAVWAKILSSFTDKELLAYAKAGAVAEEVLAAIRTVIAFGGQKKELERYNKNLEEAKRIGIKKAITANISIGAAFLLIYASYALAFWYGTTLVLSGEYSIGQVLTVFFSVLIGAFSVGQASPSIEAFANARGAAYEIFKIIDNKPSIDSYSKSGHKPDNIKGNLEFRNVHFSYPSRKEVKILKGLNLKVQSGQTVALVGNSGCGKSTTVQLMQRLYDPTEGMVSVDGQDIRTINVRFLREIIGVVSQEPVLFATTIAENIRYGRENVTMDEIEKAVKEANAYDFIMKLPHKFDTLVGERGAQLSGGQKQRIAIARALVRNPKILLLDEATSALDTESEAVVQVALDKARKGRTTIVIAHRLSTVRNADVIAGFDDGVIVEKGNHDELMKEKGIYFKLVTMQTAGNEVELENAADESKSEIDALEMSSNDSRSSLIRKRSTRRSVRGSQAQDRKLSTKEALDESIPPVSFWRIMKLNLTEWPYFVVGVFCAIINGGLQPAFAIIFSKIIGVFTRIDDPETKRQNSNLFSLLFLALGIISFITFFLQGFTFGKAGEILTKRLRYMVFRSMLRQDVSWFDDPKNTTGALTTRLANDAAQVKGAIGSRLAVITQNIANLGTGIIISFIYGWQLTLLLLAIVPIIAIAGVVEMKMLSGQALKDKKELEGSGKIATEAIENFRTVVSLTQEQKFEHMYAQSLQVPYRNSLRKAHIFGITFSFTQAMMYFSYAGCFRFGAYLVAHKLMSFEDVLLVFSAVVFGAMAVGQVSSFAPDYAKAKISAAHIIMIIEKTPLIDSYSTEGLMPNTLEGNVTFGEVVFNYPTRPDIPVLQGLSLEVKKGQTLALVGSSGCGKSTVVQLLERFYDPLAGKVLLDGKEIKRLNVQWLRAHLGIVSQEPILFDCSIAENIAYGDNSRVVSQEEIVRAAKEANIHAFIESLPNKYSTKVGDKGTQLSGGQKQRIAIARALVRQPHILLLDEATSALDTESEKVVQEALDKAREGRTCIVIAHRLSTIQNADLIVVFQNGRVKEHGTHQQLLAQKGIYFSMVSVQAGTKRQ
Description: (§2) The cell- and fluorescent imaging-based ABCB1-mediated efflux assays were carried out using ABCB1-overexpressing KB-V1 cells and calcein AM. Calcein AM was diluted in the culture media and then added directly to the cells grown in 96- or 384-well plates at the indicated final concentrations. Additionally, MitoTracker® Green FM was used as a fluorescent substrate in the ABCB1-mediated efflux assay. […] There was no incubation time after addition of the ABCB1 inhibitors. The only time delay between the addition of the inhibitors/drugs and the addition of calcein AM was the sample handling time. […] All wells contained 0.1% DMSO; except when the drugs were serial-diluted, in which the wells with the highest drug concentration contained 0.1% DMSO and the rest of wells contained diluted DMSO from the same working stock solution. The cell culture vessels were placed in a fluorescent and phase-contrast live cell imaging system, the IncuCyte^TMFLR (Essen BioScience, Ann Arbor, MI), in a 37°C incubator supplemented with 5% CO2. Both fluorescent and phase-contrast images (750×950 µm) were taken by the IncuCyte^TMFLR at the indicated time intervals. The approximate number of cells scanned was 200–600 cells per image. Auto-fluorescence of the compounds was determined by treating the cells with the drug candidates in the absence of calcein AM and fluorescence was measured using the IncuCyte^TMFLR and a fluorescent plate reader (Infinite 200 PRO, Tecan System, Inc., San Jose, CA).
(§3) The IncuCyte^TMFLR was programmed to take 4 images per well of a 96-well plate or a single image per well of a 384-well plate. It takes 27 minutes to scan an entire 96-well plate at 4 images per well and 27 minutes to scan an entire 384-well plate at one image per well, respectively. Because intracellular accumulation of calcein is time sensitive, only 3 to 6 columns of a 96-well plate were used for a single experiment. Three positive control (XR9576) wells and three background (calcein AM only) wells were included in each 96-well plate or in each column in the 384-well plates. All experiments were repeated at least twice unless otherwise indicated.
(§4) The IncuCyte^TMFLR software provides the mean of the total fluorescence intensity (mean fluorescence intensity), obtained by averaging fluorescent intensities from all the pixels in the image(s) from each well. The automatically generated mean fluorescence intensity is not corrected for the background fluorescence, which can often lead to distorted outputs. Additional software, the Object Counting v2.0 Analysis software provided by the IncuCyte^TMFLR, can assist further quantification and analysis of the fluorescent images. Using this software, a segmentation mask was generated to separate fluorescent (foreground) and non-fluorescent (background) objects so that the sum of the fluorescent intensity of the positive cells can be calculated without the interference from the background fluorescence. The Object Summed Intensity per mm^2 from the metrix menu was chosen to indicate the background corrected fluorescent intensity of each well and designated as the object intensity.
(§5) The relative inhibition of each compound on calcein AM efflux was calculated by the following equation: [drawing 1] where X represents the mean fluorescence intensities or the object intensities, and T denotes the test compound. The final results were normalized to either the maximum values of the test compounds in the dose-response experiments or to the values from XR9576 (0.2 µM) treated cells.

ABCB1 [2] = target: T1, ABCB1; test: Flow cytometry-based ABCB1-mediated efflux assay in KB-V1 cells; conditions: compound 5 µM, calcein AM 1 µM
Description: (§6) An ABCB1-mediated calcein AM efflux assay was also performed with KB-V1 cells and evaluated by flow cytometry as described previously [32]. KB-V1 cells were detached by brief trypsin treatment, followed by addition of medium containing 10% serum to neutralize the trypsin. The detached cells were collected by centrifugation, aliquoted at 500,000 cells/tube, and incubated with the test compounds at the indicated concentrations and calcein AM (1 µM) or MitoTracker® Green FM for 10 minutes in a 37°C water bath. After incubation, the cells were collected by centrifugation at 800xg for 5 minutes and resuspended in PBS/0.1% BSA. The fluorescent substrates retained in KB-V1 cells were detected by flow cytometry (BD FACSCalibur, BD Biosciences, Franklin Lakes, NJ). The data were analyzed with FlowJo 7.2.2 (Tree Star, Inc., Ashland, OR) and presented as histograms. […] Total number of cells counted per sample was 10,000.

ABCB1 [3] = target: T1, ABCB1; test: in vitro
Description: as §2, §3, §4, §5

ABCB1 [4] = target: T1, ABCB1
Description: as §2, §3, §4, §5

ABCB1 [5] = target: T1, ABCB1; test: Photolabeling of ABCB1 with [125I]IAAP; assay type: binding; design: made in house; host or cells: Hifive insect cells (crude / plasma membranes); conditions: compound 20 µM, membranes from Hifive cells overexpressing human ABCB1, autoradiograph
Description: The interaction of selected compounds with ABCB1 was assessed by an in vitro photolabeling assay as previously described [32].

[6] = Cell viability assay (CCK-8); conditions: human, HCT-15-Pgp cells
Description: HCT-15-Pgp cells were plated and cultured in 96-well plates for 1 or 2 days, until they reached 50–80% confluency. […] Cell viability was examined using the Cell Counting Kit-8 (CCK-8, Dojindo Molecular Technologies, Inc., Rockville, MD); which functions similar to MTT assays by reduction of the tetrazolium salt, WST-8, to yield a yellow-colored and water-soluble formazan dye (measured at 450 nm).

KB-V1 cells = test: Cytotoxicity to KB-V1 cells seen in the imaging assay; assay type: cell-based, human
Description: (§1) Compounds that auto-fluoresced were excluded from further analysis.

ABCB1 [7] = target: T1, ABCB1; remark: listed apart in the source
Description: as §6

KB-3-1 cells = test: Cell imaging-based calcein accumulation in parental KB-3-1 cells; design: species or system human; conditions: 1 µM calcein AM, 1 hour, mean fluorescence intensities
Description: ABCB1-overexpressing KB-V1 cells, previously selected and maintained with vinblastine (1 µg/ml), and the parental line, KB-3-1 cells, were cultured in DMEM supplemented with 10% FBS [26], [27], [28]. Vinblastine was removed from the KB-V1 cell culture medium 2 to 3 days before each experiment. For the efflux assay, the cells were plated at either 20,000 cells per well in 96-well (100 µl/well) or 2,500 cells per well in 384-well (40 µl/well) flat, clear bottom, white or black-walled polystyrene tissue culture plates (uncoated) (Corning Life Sciences, Tewksbury, MA) and incubated at 37°C. After the cell confluence reached 30–80% (1 to 3 days in culture), the cell and fluorescent imaging-based efflux assays were performed. The ABCB1 overexpressing HCT-15-Pgp cells, used for the cytotoxicity assays, were also cultured in DMEM supplemented with 10% FBS [29]. All cell lines were gifts from Dr. Michael M. Gottesman (NCI, Bethesda, MD).
as §1

[8] = ABCB1-overexpressing KB-V1 cells, probe calcein AM (1 µM)

| SMILES | inhibition at 10 µM (ABCB1 [1]; [8]) | inhibition at 10 µM (ABCB1 [3]) | other results |
| --- | --- | --- | --- |
| CCC/C=C/C=C/C(=O)O[C@H]1/C(=C/C(=O)OC)C[C@H]2C[C@H]([C@@H](C)O)OC(=O)C[C@H](O)C[C@@H]3C[C@H](OC(C)=O)C(C)(C)[C@](O)(C[C@@H]4C/C(=C/C(=O)OC)C[C@H](/C=C/C(C)(C)[C@]1(O)O2)O4)O3 [bryostatin-1, Bryostatin-1] |  |  | Inhibition of ABCB1-mediated calcein AM efflux in dose-response experiment (ABCB1 [1]; KB-V1 cells, 96-well plates, 1 µM calcein AM): failed to inhibit; Inhibition of ABCB1-mediated calcein AM efflux, flow cytometry (ABCB1 [2]): failed to inhibit |
| CS(=O)(=O)CCNCc1ccc(-c2ccc3ncnc(Nc4ccc(OCc5cccc(F)c5)c(Cl)c4)c3c2)o1 [Lapatinib Ditosylate] | ≥ 50% |  |  |
| CN(C)C(=O)CCSC(SCCC(=O)O)c1cccc(/C=C/c2ccc3ccc(Cl)cc3n2)c1 (stereo not shown) [MK-571] |  |  | Inhibition of ABCB1-mediated calcein AM efflux, flow cytometry (ABCB1 [2]): neither ABCG2 specific inhibitor FTC nor ABCC1 specific inhibitor MK-571 interfered |
| O=C(c1ccc(Nc2nccc(-c3cc4ccccc4s3)n2)cc1)N1CCC(N2CCCC2)CC1 [IKK 16] |  |  | Inhibition of ABCB1-mediated calcein AM efflux, flow cytometry (ABCB1 [2]): inhibited; IC50, inhibition of ABCB1-mediated calcein AM efflux (ABCB1 [4]): cannot be calculated from the data; Inhibition of ABCB1-mediated calcein AM efflux in dose-response experiment (ABCB1 [4]): dose-dependent inhibition; Competition with [125I]IAAP for direct binding to ABCB1 (ABCB1 [5]): successfully competed |
| Cc1cnc(NC(=O)Nc2cc(Br)c(C)cc2OC[C@@H]2CNCCO2)cn1 [LY2603618] |  | ≥ 50% |  |
| COc1cc(Nc2c(C#N)cnc3cc(OCCCN4CCN(C)CC4)c(OC)cc23)c(Cl)cc1Cl [Bosutinib (SKI-606), Bosutinib] |  | ≥ 50% |  |
| O=C(Nc1cccc(Cl)c1)Nc1ncc(CCNc2ncnc3ccsc23)s1 [SNS-314 Mesylate] |  | ≥ 50% |  |
| CC[C@@H]1C(=O)N(C)c2cnc(Nc3ccc(C(=O)NC4CCN(C)CC4)cc3OC)nc2N1C1CCCC1 [BI 2536] |  |  | IC50 at 48 h [6]: 1280 nM |
| C[C@@H](Oc1cc(-n2cnc3ccc(CN4CCN(C)CC4)cc32)sc1C(N)=O)c1ccccc1C(F)(F)F [GSK461364] | ≥ 50% |  |  |
| COc1cc2ncnc(Nc3ccc(F)c(Cl)c3)c2cc1OCCCN1CCOCC1 [Gefitinib (Iressa), Gefitinib] |  | ≥ 50% |  |
| C[S+](C)[O-] [DMSO, dimethyl sulfoxide] |  |  | Concentration toxic to KB-V1 cells (KB-V1 cells; 1 µM calcein AM (data not shown)): ≥ 0.5 % (v/v) |
| Cn1c(=O)n(-c2ccc(C(C)(C)C#N)cc2)c2c3cc(-c4cnc5ccccc5c4)ccc3ncc21 [BEZ235] |  | ≥ 50% | IC50 (ABCB1 [1]): 20.1 µM; Inhibition of ABCB1-mediated calcein AM efflux in dose-response experiment (ABCB1 [4]): dose-dependent inhibition |
| CCOc1cc2ncc(C#N)c(Nc3ccc(F)c(Cl)c3)c2cc1NC(=O)/C=C/CN(C)C [Pelitinib] | ≥ 50% |  |  |
| CN(C)C/C=C/C(=O)Nc1cc2c(Nc3ccc(F)c(Cl)c3)ncnc2cc1O[C@H]1CCOC1 [BIBW2992 (Tovok)] |  |  | inhibition at 10 µM (ABCB1 [1]): ≥ 50% |
| Cc1ccc(NC(=O)c2ccc(CN3CCN(C)CC3)cc2)cc1Nc1nc(-c2cccnc2)cs1 [Masitinib (AB1010), Masitinib] | ≥ 50% |  |  |
| Cc1cn(-c2cc(NC(=O)c3ccc(C)c(Nc4nccc(-c5cccnc5)n4)c3)cc(C(F)(F)F)c2)cn1 [Nilotinib] |  | ≥ 50% |  |
| Cc1ccc(NC(=O)c2ccc(CN3CCN(C)CC3)cc2)cc1Nc1nccc(-c2cccnc2)n1 [Imatinib (STI571), Imatinib] |  | ≥ 50% |  |
| C=CC(=O)Nc1cc2c(Nc3ccc(F)c(Cl)c3)ncnc2cc1OCCCN1CCOCC1 [CI-1033 (Canertinib), Canertinib] |  | ≥ 50% |  |
| COc1cc2c(cc1OC)CN(CCc1ccc(NC(=O)c3cc(OC)c(OC)cc3NC(=O)c3cnc4ccccc4c3)cc1)CC2 [XR9576, tariquidar] |  |  | IC50 (ABCB1 [1]): 0.00728 µM; Inhibition of ABCB1-mediated calcein AM efflux in dose-response experiment (ABCB1 [4]): dose-dependent inhibition; Inhibition of MitoTracker Green FM efflux, cell imaging (ABCB1 [4]; human): inhibition on ABCB1-mediated efflux was detected; Concentration cytotoxic to cells (KB-V1 cells; imaging assay (not shown)): > 1 µM; Inhibition of MitoTracker Green FM efflux, flow cytometry (ABCB1 [7]): blocked; Effect on fluorescent calcein accumulation (KB-3-1 cells): independent |
| Cc1ccc(C(=O)N(CCCN)[C@@H](c2nc3cc(Cl)ccc3c(=O)n2Cc2ccccc2)C(C)C)cc1 [ispinesib] |  |  | IC50 (ABCB1 [1]): 5.04 µM; Inhibition of ABCB1-mediated calcein AM efflux in dose-response experiment (ABCB1 [4]): dose-dependent inhibition; Inhibition of ABCB1-mediated calcein AM efflux, flow cytometry (ABCB1 [7]): inhibited; Competition with [125I]IAAP for direct binding to ABCB1 (ABCB1 [5]): marginal effect |
| COc1ccc2c3c([nH]c2c1)[C@H](C=C(C)C)N1C(=O)[C@@H]2CCCN2C(=O)[C@@H]1C3 [FTC, fumitremorgin C] |  |  | Inhibition of ABCB1-mediated calcein AM efflux, flow cytometry (ABCB1 [2]): neither ABCG2 specific inhibitor FTC nor ABCC1 specific inhibitor MK-571 interfered |

Continued, in another order:

| inhibition at 10 µM (ABCB1 [1]; [8]) | inhibition at 10 µM (ABCB1 [3]) | SMILES | other results |
| --- | --- | --- | --- |
| ≥ 50% |  | S=C(NCc1ccc2c(c1)OCO2)N1CCN(c2ncnc3c2oc2ccccc23)CC1 [MP-470 (Amuvatinib), Amuvatinib] |  |
|  | ≥ 50% | C=CC(=O)Nc1cccc(Oc2nc(Nc3ccc(N4CCN(C)CC4)cc3OC)ncc2Cl)c1 [WZ4002] |  |
|  | ≥ 50% | CO[C@H]1C[C@@H]2CC[C@@H](C)[C@@](O)(O2)C(=O)C(=O)N2CCCC[C@H]2C(=O)O[C@H]([C@H](C)C[C@@H]2CC[C@@H](OP(C)(C)=O)[C@H](OC)C2)CC(=O)[C@H](C)/C=C(\C)[C@@H](O)[C@@H](OC)C(=O)[C@H](C)C[C@H](C)/C=C/C=C/C=C/1C [Deforolimus (MK-8669), Deforolimus] |  |
|  | ≥ 50% | CO[C@H]1C[C@@H]2CC[C@@H](C)[C@@](O)(O2)C(=O)C(=O)N2CCCC[C@H]2C(=O)O[C@H]([C@H](C)C[C@@H]2CC[C@@H](OC(=O)C(C)(CO)CO)[C@H](OC)C2)CC(=O)[C@H](C)/C=C(\C)[C@@H](O)[C@@H](OC)C(=O)[C@H](C)C[C@H](C)/C=C/C=C/C=C/1C [Temsirolimus] |  |
| ≥ 50% |  | CN1CCN(CCOc2cc(OC3CCOCC3)c3c(Nc4c(Cl)ccc5c4OCO5)ncnc3c2)CC1 [AZD0530 (Saracatinib), Saracatinib] |  |
| ≥ 50% |  | CC[C@@H]1C(=O)N(C)c2cnc(Nc3ccc(C(=O)N[C@H]4CC[C@H](N5CCN(CC6CC6)CC5)CC4)cc3OC)nc2N1C(C)C [BI6727] |  |
| ≥ 50% |  | CO[C@H]1C[C@@H]2CC[C@@H](C)[C@@](O)(O2)C(=O)C(=O)N2CCCC[C@H]2C(=O)O[C@H]([C@H](C)C[C@@H]2CC[C@@H](OCCO)[C@H](OC)C2)CC(=O)[C@H](C)/C=C(\C)[C@@H](O)[C@@H](OC)C(=O)[C@H](C)C[C@H](C)/C=C/C=C/C=C/1C [Everolimus (RAD001), Everolimus] |  |
|  | ≥ 50% | COc1cc2c(Oc3ccc4[nH]c(C)cc4c3F)ncnc2cc1OCCCN1CCCC1 [Cediranib (AZD2171), Cediranib] |  |
|  | ≥ 50% | CO[C@H]1C[C@@H]2CC[C@@H](C)[C@@](O)(O2)C(=O)C(=O)N2CCCC[C@H]2C(=O)O[C@H]([C@H](C)C[C@@H]2CC[C@@H](O)[C@H](OC)C2)CC(=O)[C@H](C)/C=C(\C)[C@@H](O)[C@@H](OC)C(=O)[C@H](C)C[C@H](C)/C=C/C=C/C=C/1C [Rapamycin (Sirolimus), Rapamycin] |  |
| ≥ 50% |  | CC1(COc2ccc3c(c2)ncn3-c2ccc3cccc(N4CCC(N)CC4)c3n2)COC1 [Crenolanib (CP-868596), Crenolanib] |  |
| ≥ 50% |  | COc1cc2nccc(Oc3ccc(NC(=O)Nc4cc(C)on4)c(Cl)c3)c2cc1OC [AV-951 (Tivozanib), Tivozanib] |  |
